Series [1] concerns the target T1, AMPA GluA1 flip isoform devoid of TARP (Homo sapiens, UniProt P42261).
T1 construct: expressed in transfected cells; host or cells: CHO-S (Invitrogen), transient transfection
Kind of series: FLIPR antagonist functional assay, GluA1 flip expressed in CHO-S cells without TARP. It counts as cell-based. Conditions: no TARP, did not inhibit, assay limit 9260 nM. How it is done:
(§1) FLIPR Antagonist Functional Assay
(§2) Briefly, CHO-S (Invitrogen) cells are grown in suspension in 50/50 custom media to a density of 1×10^7 cells/ml. […]

Series [2] concerns the target T2, TARP γ2 dependent GluA1 flop receptors (Homo sapiens, UniProt P42261+Q9Y698).
T2 construct: expressed in transfected cells; host or cells: CHO-S (Invitrogen), transient transfection
Kind of series: FLIPR antagonist functional assay, GluA1 flop co-expressed with TARP γ-2 in CHO-S cells. It is filed as cell-based. The note with it: did not inhibit, assay limit 9260 nM. As for the experimental part:
as §1, §2

The target of series [3] is T3, TARP γ8 dependent GluA1 flop receptors (Homo sapiens, UniProt P42261+Q8WXS5).
T3 construct: expressed in transfected cells; host or cells: CHO-S (Invitrogen), transient transfection
T3 sequence (P42261 19-906): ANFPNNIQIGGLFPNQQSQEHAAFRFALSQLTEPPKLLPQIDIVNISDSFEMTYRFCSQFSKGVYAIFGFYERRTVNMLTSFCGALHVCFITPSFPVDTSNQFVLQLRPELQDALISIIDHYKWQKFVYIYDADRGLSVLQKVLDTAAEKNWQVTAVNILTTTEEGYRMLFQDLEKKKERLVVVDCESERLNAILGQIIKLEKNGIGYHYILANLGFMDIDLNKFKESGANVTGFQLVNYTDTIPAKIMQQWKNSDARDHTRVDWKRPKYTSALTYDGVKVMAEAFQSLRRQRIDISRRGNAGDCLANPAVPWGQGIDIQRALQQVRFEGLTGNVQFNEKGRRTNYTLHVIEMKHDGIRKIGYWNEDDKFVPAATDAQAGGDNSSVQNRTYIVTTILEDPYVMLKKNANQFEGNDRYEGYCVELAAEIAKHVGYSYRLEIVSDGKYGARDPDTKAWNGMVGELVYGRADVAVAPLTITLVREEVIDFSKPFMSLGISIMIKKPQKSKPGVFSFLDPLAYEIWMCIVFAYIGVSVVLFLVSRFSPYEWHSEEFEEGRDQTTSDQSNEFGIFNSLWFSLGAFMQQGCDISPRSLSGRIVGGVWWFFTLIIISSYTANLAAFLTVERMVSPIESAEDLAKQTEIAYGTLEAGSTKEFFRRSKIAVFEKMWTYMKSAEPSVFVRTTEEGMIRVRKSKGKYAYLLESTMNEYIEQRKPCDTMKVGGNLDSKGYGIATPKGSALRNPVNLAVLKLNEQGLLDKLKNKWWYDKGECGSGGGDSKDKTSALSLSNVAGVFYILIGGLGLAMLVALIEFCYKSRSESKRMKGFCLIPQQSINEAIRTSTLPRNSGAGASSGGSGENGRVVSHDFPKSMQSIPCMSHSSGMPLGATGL
T3 sequence (Q8WXS5 whole entry): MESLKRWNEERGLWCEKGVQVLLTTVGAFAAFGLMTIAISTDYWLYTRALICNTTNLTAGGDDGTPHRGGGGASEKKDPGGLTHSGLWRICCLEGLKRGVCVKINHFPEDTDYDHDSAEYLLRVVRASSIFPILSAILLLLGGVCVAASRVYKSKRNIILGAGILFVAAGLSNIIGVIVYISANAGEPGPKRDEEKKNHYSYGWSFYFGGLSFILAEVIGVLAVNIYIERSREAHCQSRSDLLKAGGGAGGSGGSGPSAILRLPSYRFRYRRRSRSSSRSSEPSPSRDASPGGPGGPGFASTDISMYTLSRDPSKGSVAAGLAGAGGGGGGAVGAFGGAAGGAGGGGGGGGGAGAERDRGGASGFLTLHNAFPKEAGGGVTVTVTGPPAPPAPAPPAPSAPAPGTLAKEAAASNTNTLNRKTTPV
The experiment in a line: FLIPR antagonist functional assay, GluA1 flop co-expressed with TARP γ-8 in CHO-S cells. The note with it: glutamate 45 μM plus CTZ 20 μM, average±SEM, n=9. It counts as cell-based. As for the experimental part: as §1, §2

The next series concerns formalin induced pain. The experiment in a line: Manual formalin induced pain model. It counts as in vivo, mice. The note with it: for % reduction in total time licking: mice. How it is done: Manual Formalin Induced Pain Model
The manual formalin induced pain model is well known for screening compounds for analgesic properties (Mogil J. S. et al., Heritability of nociception I: Responses of 11 inbred mouse strains on 12 measures of nociception. Pain 80 (1999) 67-82). The assay is performed in Plexiglas® boxes approx. 10 cm×10 cm×10 cm in size. A minor placed at the back of the cage allows the unhindered observation of the formalin injected paw. Non-fasted male mice (Harlan (HSD) CD1-Icr) are placed individually in the cubicles at least 60 min. prior to the experiment. All testing is conducted between 08:00 and 16:00 hr. and the testing room temperature is maintained at 21-23° C. Multiple doses of test compound (3, 10 and 30 mg/kg), vehicle (5% DMSO in 10% Acacia, 0.05% antifoam), and a positive control (tramadol 80 mg/kg in 1% HEC, 0.25% Tween 80, 0.05% antifoam) are peripherally administered (p.o.) at varying times before the formalin challenge. Formalin (20 μL of a 5% solution in 0.9% saline) is injected subcutaneously into the plantar surface of the left hind paw with a 27 gauge needle. Observation starts immediately after the formalin injection. Formalin induced pain is quantified by recording the number of seconds each licking event lasts in 5 min. intervals. The pain scoring is measured for 60 min. after the formalin injection. Two phases of pain behavior are observed as previously described (Wheeler-Aceto, H., Porreca, F. and Cowan, A., The rat paw formalin test: comparison of noxious agents, Pain 40 (1990) 229-238.). The early phase starts immediately after the formalin injection and lasts approximately 5 min., followed by the late phase that starts between minutes 10-15 with a maximum response typically observed around 25-40 min after the formalin injection. After the 60 min observation period, animals are sacrificed with CO2 followed by cervical dislocation. Of the different scoring parameters reported for the formalin test, the total time spent licking and biting the injected paw is considered to be most relevant. (Abbott et al., The formalin test: scoring properties of the first and second phases of the pain response in rats, Pain 60 (1995) 91-102; Coderre et al., The formalin test: a validation of the weighted-scores method of the behavioral pain rating, Pain 54 (1993) 43-50).) The early phase score is the sum of time spent licking (seconds) from time 0 to 5 min. The late phase score is obtained by adding the total number of seconds spent licking from minute 15 to min. 55 of the observation period. Data are presented as means with standard errors of means (±SEM). Data are evaluated by one-way analysis of variance (ANOVA) and the appropriate contrasts analyzed by Dunnett “t” test for two sided comparisons. […]

In the next series the test system is PTZ induced seizures. The experiment in a line: Rat pentylenetetrazole (PTZ)-induced seizure model. It is filed as in vivo. The source says: Rat Pentylenetetrazole (PTZ)-Induced Seizure Model:
Male Sprague Dawley rats (from Harlan Sprague Dawley. Indianapolis, Ind.), weighing 90-110 grams at time of test, are housed 5 per cage with ad libitum food and water in a large colony room with a standard light cycle (lights on 6 am, lights off 6 pm). Animals are maintained in the colony room for at least 3 days before testing Animals are moved to a quiet room 1 hr. prior to the start of the test. Animals are used only once.
Animals are removed and dosed with test compound or vehicle (5% DMSO, 10% acacia and 0.05% Dow Corning® 1510-US antifoam), p.o., 10 mL/Kg, and returned to their home cage. Twenty five min. after dosing, animals are placed onto a screen and the screen is inverted 180 degrees to test for motor impairment. The animals are scored 60 sec. after inversion as follows: 0 if the animal climbs over the screen; 1 if the animal is hanging onto the bottom of the screen; 2 if the animal has fallen off the screen. After completing the screen test, animals are dosed S.C. with 35 mg/kg PTZ in saline in a volume of 1 ml/kg. The animals are then placed in an observation cage and observed for 30 min. post PTZ. […] Lethality during the observation period is also recorded. Animals are scored according to the presence of a specific seizure type at any time during the observation period.

The test system of a further series is motor impairment. Kind of series: Inverted screen test for motor impairment (within rat PTZ model). It is filed as in vivo. Conditions: rats, 1-10 mg/Kg p.o., 25 min after dosing. How it is done:
Animals are removed and dosed with test compound or vehicle (5% DMSO, 10% acacia and 0.05% Dow Corning® 1510-US antifoam), p.o., 10 mL/Kg, and returned to their home cage. Twenty five min. after dosing, animals are placed onto a screen and the screen is inverted 180 degrees to test for motor impairment. The animals are scored 60 sec. after inversion as follows: 0 if the animal climbs over the screen; 1 if the animal is hanging onto the bottom of the screen; 2 if the animal has fallen off the screen. After completing the screen test, animals are dosed S.C. with 35 mg/kg PTZ in saline in a volume of 1 ml/kg. The animals are then placed in an observation cage and observed for 30 min. post PTZ. […] Tonic seizure is defined as loss of righting with tonic hindlimb extension. Lethality during the observation period is also recorded. Animals are scored according to the presence of a specific seizure type at any time during the observation period.

T2 sequence (P42261 19-906): as the sequence (P42261 19-906) above
T2 sequence (Q9Y698 whole entry): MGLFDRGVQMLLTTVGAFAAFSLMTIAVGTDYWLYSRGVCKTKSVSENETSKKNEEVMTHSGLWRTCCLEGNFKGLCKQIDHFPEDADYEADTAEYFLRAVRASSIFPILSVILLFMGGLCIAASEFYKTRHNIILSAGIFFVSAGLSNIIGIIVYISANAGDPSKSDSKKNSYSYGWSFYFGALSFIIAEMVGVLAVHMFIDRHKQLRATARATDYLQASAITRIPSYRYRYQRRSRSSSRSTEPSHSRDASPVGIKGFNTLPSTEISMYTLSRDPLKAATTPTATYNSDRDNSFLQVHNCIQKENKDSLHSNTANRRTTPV
T1 sequence (P42261 19-906 isoform P42261-2 limits assumed): as the sequence (P42261 19-906) above, with N740G, N750S, L754V, N760S, G772K, G773D, G774S, D775G counted along it

What is called IC50 is the concentration that inhibits the measured activity by half. The ED50 is the midpoint of the dose-response relation. Consider `C[C@@H](c1ccc2[nH]c(=O)sc2c1)c1ccn(-c2ccc(OCCO)cn2)n1` (single isomer, unassigned) [Example 2], for which the 50% inhibitory concentration (IC50) in series [1] was more than 9.26 µM; in series [2] it was more than 9.26 µM; in series [3] it was 0.0745 ± 0.0178 µM. For the same compound, the “inhibition of glutamate plus CTZ activation” value in series [3] is recorded as “about 85.6±0.7%”. The ED50 in the series on formalin induced pain (Mus musculus, po, male CD1 mice, p.o., derived from dose responses at 3, 10, 30 mg/kg, read-out: ED50, reduction of pain behavior) was 2.61 mg/kg; in the series with PTZ induced seizures (Rattus norvegicus, male Sprague Dawley rats, p.o., dose range 1-10 mg/Kg, PTZ 35 mg/kg S.C., read-out: estimated ED50, protection against PTZ induced seizures), 1.74 mg/kg. Moreover, the “% reduction in total time licking” value in the series with formalin induced pain (3 mg/kg p.o.) came out at 53.9%; in the series with formalin induced pain (10 mg/kg p.o.), 80.4%; with formalin induced pain (30 mg/kg p.o.), 90.0%. The “protection against PTZ induced seizures” value in the series on PTZ induced seizures (rats, 10 mg/Kg p.o.) was found to be 100%. For the same compound, the “motor impairment as measured by the inverted screen test” value in the series on motor impairment was “without any observed motor impairment”.

(Values after patent US8765960B2, “6-((S)-1- {1-[5-(2-hydroxy-ethoxy)-pyridin-2-yl]-1H-pyrazol-3-YL}-ethyl)-3H-1,3-benzothiazol-2-one as a tarp-gamma 8 dependent AMPA receptor antagonist” (Eli Lilly and Company, priority 2012, dated 2014).)
